Measured values published in patent US8114400B2, “Aza-bicyclic compounds and their use as stimulators of soluble guanylate cyclase” (Bayer Pharma Aktiengesellschaft, priority 2006, dated 2012).

Test system: aorta rings
Assay: Vasorelaxant effect in vitro (phenylephrine-contracted rabbit aorta rings)
Design: species or system Rabbits
Settings: Oryctolagus cuniculus, contraction induced by phenylephrine, 37° C., 0.1% DMSO, read-out: IC50 (concentration necessary to reduce the level of contraction by 50%)
Method: Rabbits are stunned by a blow to the back of the neck and are exsanguinated. The aorta is removed, freed of adherent tissue, divided into rings 1.5 mm wide and placed singly in 5 ml organ baths with carbogen-gassed Krebs-Henseleit solution of the following composition (in each case mM): NaCl: 119; KCl: 4.8; CaCl2×2H2O: 1; MgSO4×7H2O: 1.4; KH2PO4: 1.2; NaHCO3: 25; glucose: 10, under an initial tension at 37° C. The force of contraction is detected with Statham UC2 cells, amplified and digitized via A/D converters (DAS-1802 HC, Keithley Instruments Munich), and recorded in parallel on chart recorders. A contraction is induced by adding phenylephrine to the bath cumulatively in increasing concentration. After several control cycles, the substance to be investigated is added in each further run in increasing dosage each time, and the level of contraction is compared with the level of contraction achieved in the last preceding run. The concentration necessary to reduce the level of contraction by 50% (IC50) is calculated therefrom. The standard application volume is 5 μl, and the DMSO content in the bath solution corresponds to 0.1%.

- IC50: 6.2 µM
Compound: Nc1nc(N)nc(-c2nn(Cc3ccccc3F)c3nccn23)n1 [Example 1, 6-[1-(2-Fluorobenzyl)-1H-imidazo[2,1-c][1,2,4]triazol-3-yl]-1,3,5-triazine-2,4-diamine]
